According to patent publication US6413517B1, “Identification of broadly reactive DR restricted epitopes” (Epimmune, Inc., priority 1997, dated 2002):
Like-named read-outs stand apart in the source and are kept apart here. No end group written: not given here.

Columns and labels:
DRB1*0101 (DR1) = target: T1, DRB1*0101 (DR1) (Homo sapiens, UniProt P01903+P01911, A100R/D57E/F55L/F60I/F76Y/I96L/L162R/M171V/P40L/Q125E/R42F/V115G/Y59C); assay: biochemical; type: binding
T1 construct: Epstein-Barr virus (EBV) transformed homozygous cell lines were used as sources; endogenous in cells; host or cells: LG2 (EBV-transformed homozygous B cell line)

DRB1*0401 (DR4w4) = target: T2, DRB1*0401 (DR4w4) (Homo sapiens, UniProt P01903+P01911, A100K/A169T/F76Y/I96L/K127E/L162R/M171V/N62H/P40V/Q125Y/R42H/S133A/S149N/S66Y/V115G/V209L/W38E); assay: biochemical; type: binding
T2 construct: Epstein-Barr virus (EBV) transformed homozygous cell lines were used as sources; endogenous in cells; host or cells: PREISS (EBV-transformed homozygous B cell line)

DRB1*0701 (DR7) = target: T3, DRB1*0701 (DR7) (Homo sapiens, UniProt P01903+P01911, A100R/A102G/A103Q/D57E/D86V/E43K/F76Y/K127E/L162R/M171V/P40G/Q125H/Q99D/R33Q/R42Y/R54Q/S133A/S66F/T210M/V115G/Y107V/Y59L/Y89S); assay: biochemical; type: binding
T3 construct: Epstein-Barr virus (EBV) transformed homozygous cell lines were used as sources; endogenous in cells; host or cells: PITOUT (EBV-transformed homozygous B cell line)

DRB1*1501 (DR2w2b) = target: T4, DRB1*1501 (DR2w2b) (Homo sapiens, UniProt P01903+P01911); assay: biochemical; type: binding
T4 construct: expressed in transfected cells; host or cells: transfected fibroblasts L466.1

DRB5*0101 (DR2w2a) = target: T5, DRB5*0101 (DR2w2a) (Homo sapiens, UniProt P01903+Q30154); assay: biochemical; type: binding
T5 construct: Epstein-Barr virus (EBV) transformed homozygous cell lines were used as sources; endogenous in cells; host or cells: GM3107 (EBV-transformed homozygous B cell line)

DRB1*0405 (DR4w15) = target: T6, DRB1*0405 (DR4w15) (Homo sapiens, UniProt P01903+P01911, A100R/A169T/D86S/F76Y/I96L/K127E/L162R/M171V/N62H/P40V/Q125Y/R42H/S133A/S149N/S66Y/V115G/V209L/W38E); assay: biochemical; type: binding
T6 construct: Epstein-Barr virus (EBV) transformed homozygous cell lines were used as sources; endogenous in cells; host or cells: KT3 (EBV-transformed homozygous B cell line)

DRB1*1101 (DR5w11) = target: T7, DRB1*1101 (DR5w11) (Homo sapiens, UniProt P01903+P01911, A100R/A169T/A87E/I96F/K41T/L162R/M171V/P40S/Q125H/Q178H/Q39Y/Q99D/R42S/S66Y/T262R/V115G/W38E); assay: biochemical; type: binding
T7 construct: Epstein-Barr virus (EBV) transformed homozygous cell lines were used as sources; endogenous in cells; host or cells: SWEIG (EBV-transformed homozygous B cell line)

DRB1*1302 (DR6w19) = target: T8, DRB1*1302 (DR6w19) (Homo sapiens, UniProt P01903+P01911, A100E/A169T/K41T/L162R/M171V/P40S/Q125H/Q178H/Q39Y/Q99D/R42S/S66N/T262R/V115G/W38E/Y61H); assay: biochemical; type: binding
T8 construct: Epstein-Barr virus (EBV) transformed homozygous cell lines were used as sources; the source of Class II molecules the EBV transformed homozygous cell line H0301; endogenous in cells; host or cells: H0301 (EBV-transformed homozygous B cell line)

DRB1*0802 (DR8w2) = target: T9, DRB1*0802 (DR8w2) (Homo sapiens, UniProt P01903+P01911, A100R/A103L/A169T/F76Y/H45Y/I96F/K41T/L162R/M171V/P40S/Q125H/Q178H/Q39Y/Q99D/R218S/R42G/S66Y/V115G/W38E); assay: biochemical; type: binding
T9 construct: Epstein-Barr virus (EBV) transformed homozygous cell lines were used as sources; endogenous in cells; host or cells: OLL (EBV-transformed homozygous B cell line)

DRB1*0901 (DR9) = target: T10, DRB1*0901 (DR9) (Homo sapiens, UniProt P01903+P01911, A100R/A103E/D57H/D86V/F55Y/F60I/F76Y/I96F/K127E/L162R/M171V/P40D/Q125H/Q99R/R33Q/R42F/S133A/S66N/T210M/V115G/W38K/Y107V/Y59G/Y89S); assay: biochemical; type: binding
T10 construct: Epstein-Barr virus (EBV) transformed homozygous cell lines were used as sources; endogenous in cells

DRB1*1201 (DR5w12) = target: T11, DRB1*1201 (DR5w12) (Homo sapiens, UniProt P01903+P01911, A100R/A169T/D57E/D86V/F55L/H45Y/K41T/L162R/M171V/P40S/Q125H/Q178H/Q39Y/Q99D/R42G/S66L/T262R/V114A/V67L/W38E/Y59H/Y61H/Y89S); assay: biochemical; type: binding
T11 construct: Epstein-Barr virus (EBV) transformed homozygous cell lines were used as sources; endogenous in cells; host or cells: Herluf (EBV-transformed homozygous B cell line)

DRB1*0301 (DR3w17) [1] = target: T12, DRB1*0301 (DR3w17) (Homo sapiens, UniProt P01903+P01911, A100K/A102G/A103R/A169T/F55Y/I96L/K41T/L162R/M171V/P40S/Q125H/Q178H/Q39Y/R42S/S66N/T106N/T262R/W38E/Y61H); conditions: read-out: Binding Capacity (IC 50% nM) Other Alleles DR3
DRB1*0301 (DR3w17) [2] = target: T12, DRB1*0301 (DR3w17); assay: biochemical; conditions: Binding Capacity (IC50% nM) DR3
[3] = Binding Capacity (IC 50% nM) DR1,4,7 DRB1
[4] = read-out: Binding Capacity (IC 50% nM) DR1,4,7 DR4w4
[5] = Binding Capacity (IC 50% nM) DR1,4,7 DR7
[6] = Binding Capacity (IC 50% nM) Other Alleles DR2w2b
[7] = Binding Capacity (IC50% nM) DR2w2a
[8] = Binding Capacity (IC 50% nM) Other Alleles DR2w2a
[9] = Binding Capacity (IC 50% nM) Other Alleles DR4w15
[10] = Binding Capacity (IC50% nM) DR5w11
[11] = read-out: Binding Capacity (IC 50% nM) Other Alleles DR5w11
[12] = Binding Capacity (IC50% nM) DR6w19
[13] = read-out: Binding Capacity (IC 50% nM) Other Alleles DR6w19
[14] = Binding Capacity (IC50% nM) DR8w2
[15] = read-out: Binding Capacity (IC 50% nM) Other Alleles DR8w2
[16] = Binding Capacity (IC 50% nM) Other Alleles DR9
[17] = Binding Capacity (IC50% nM) DR5w12
[18] = read-out: Binding Capacity (IC 50% nM) Other Alleles DR5w12

T7 sequence (P01903 26-254, other chains not shown): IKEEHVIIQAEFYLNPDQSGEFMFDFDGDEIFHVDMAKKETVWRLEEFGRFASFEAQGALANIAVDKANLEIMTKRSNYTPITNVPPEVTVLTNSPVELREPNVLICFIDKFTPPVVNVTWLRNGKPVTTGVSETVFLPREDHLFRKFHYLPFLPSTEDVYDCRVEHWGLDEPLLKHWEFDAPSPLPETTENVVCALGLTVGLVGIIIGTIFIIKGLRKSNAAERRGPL

Molecule	IC50 (DRB1*0101 (DR1); [3])	IC50 (DRB1*0401 (DR4w4); [4])	IC50 (DRB1*0701 (DR7); [5])	IC50 (DRB1*1501 (DR2w2b); [6])	IC50 (DRB5*0101 (DR2w2a); [7])	IC50 (DRB5*0101 (DR2w2a); [8])	IC50 (DRB1*0405 (DR4w15); [9])	IC50 (DRB1*1101 (DR5w11); [10])	IC50 (DRB1*1101 (DR5w11); [11])	IC50 (DRB1*1302 (DR6w19); [12])	IC50 (DRB1*1302 (DR6w19); [13])	IC50 (DRB1*0802 (DR8w2); [14])	IC50 (DRB1*0802 (DR8w2); [15])	IC50 (DRB1*0901 (DR9); [16])	IC50 (DRB1*1201 (DR5w12); [17])	IC50 (DRB1*0301 (DR3w17) [1])	IC50 (DRB1*0301 (DR3w17) [2])	IC50 (DRB1*1201 (DR5w12); [18])	other results
GPPTALRSFGFAFGYM [Peptide 1136.29]	< 1000 nM	> 1000 nM	< 1000 nM	< 1000 nM	468 nM	< 1000 nM	< 1000 nM	6250 nM	> 1000 nM	> 10000 nM	> 1000 nM	2970 nM	> 1000 nM	< 1000 nM	1000 nM	> 1000 nM	> 10000 nM	–	IC50 (DRB1*0101 (DR1); Binding Capacity (IC50% nM) DR1): 32 nM; IC50 (DRB1*0401 (DR4w4); Binding Capacity (IC50% nM) DR4w4): 4330 nM; IC50 (DRB1*1501 (DR2w2b); Binding Capacity (IC50% nM) DR2w2b): 1.1 nM; IC50 (DRB1*0405 (DR4w15); Binding Capacity (IC50% nM) DR4w15): 745 nM; IC50 (DRB1*0901 (DR9); Binding Capacity (IC50% nM) DR9): 183 nM; IC50 (DRB1*1201 (DR5w12); Binding Capacity (IC 50% nM) Other Alleles DR5w12): < 1000 nM
CC[C@H](C)[C@H](NC(=O)[C@H](Cc1ccccc1)NC(=O)[C@H](Cc1ccccc1)NC(=O)[C@H](CO)NC(=O)[C@H](C)NC(=O)[C@@H]1CCCN1C(=O)[C@H](Cc1ccccc1)NC(=O)[C@@H](NC(=O)[C@@H](N)C(C)C)C(C)C)C(=O)N[C@@H](CCCCN)C(=O)N[C@@H](CC(C)C)C(=O)N1CCC[C@H]1C(=O)N[C@H](C(=O)N[C@H](C(=O)N[C@@H](CC(C)C)C(=O)N[C@@H](C)C(=O)O)[C@@H](C)CC)[C@@H](C)CC [Peptide 1136.11]	< 1000 nM	–	–	< 1000 nM	–	< 1000 nM	< 1000 nM	–	–	> 10000 nM	> 1000 nM	–	–	–	> 10000 nM	> 1000 nM	> 10000 nM	> 1000 nM	IC50 (DRB1*0401 (DR4w4); Binding Capacity (IC 50% nM) DR1,4,7 DR4w4): < 1000 nM; IC50 (DRB1*0701 (DR7); Binding Capacity (IC50% nM) DR7): 9610 nM; IC50 (DRB1*0701 (DR7); read-out: Binding Capacity (IC 50% nM) DR1,4,7 DR7): > 1000 nM; IC50 (DRB1*1101 (DR5w11); Binding Capacity (IC 50% nM) Other Alleles DR5w11): < 1000 nM; IC50 (DRB1*0802 (DR8w2); Binding Capacity (IC 50% nM) Other Alleles DR8w2): < 1000 nM; IC50 (DRB1*0901 (DR9); read-out: Binding Capacity (IC 50% nM) Other Alleles DR9): > 1000 nM
CC[C@H](C)[C@H](NC(=O)[C@H](CO)NC(=O)[C@H](CO)NC(=O)[C@H](CC(N)=O)NC(=O)[C@@H](NC(=O)[C@@H](NC(=O)[C@H](CC(N)=O)NC(=O)[C@H](Cc1ccccc1)NC(=O)[C@@H](N)C(C)C)C(C)C)C(C)C)C(=O)NCC(=O)N[C@@H](CC(C)C)C(=O)N[C@H](C(=O)N[C@@H](CCSC)C(=O)N[C@H](C(=O)N[C@@H](CC(C)C)C(=O)O)C(C)C)[C@@H](C)CC [Peptide F107.23]	< 1000 nM	> 1000 nM	< 1000 nM	–	> 10000 nM	–	–	> 10000 nM	> 1000 nM	–	–	> 10000 nM	> 1000 nM	< 1000 nM	> 10000 nM	> 1000 nM	> 10000 nM	> 1000 nM	IC50 (DRB1*1501 (DR2w2b); read-out: Binding Capacity (IC 50% nM) Other Alleles DR2w2b): > 1000 nM; IC50 (DRB5*0101 (DR2w2a); read-out: Binding Capacity (IC 50% nM) Other Alleles DR2w2a): > 1000 nM; IC50 (DRB1*0405 (DR4w15); read-out: Binding Capacity (IC 50% nM) Other Alleles DR4w15): > 1000 nM; IC50 (DRB1*1302 (DR6w19); Binding Capacity (IC 50% nM) Other Alleles DR6w19): < 1000 nM
